In paper PMC7863742, “Sensitive Fluorescence Assay for the Detection of Alkaline Phosphatase Based on a Cu^2+-Thiamine System” (Sensors (Basel, Switzerland), 2021) one finds IC50 data, which are given here for 1 molecule.

Molecules are shown by their SMILES.

For this test, the target named is Alkaline phosphatase (ALP). Description: Cu2+-thiamine fluorescence assay of ALP hydrolysis of ascorbic acid 2-phosphate. The test is classed as biochemical.

As to `[O]=[V]([OH])([OH])[OH]` [Na3VO4], it took 262 µM to reach half-maximal inhibition (IC50).
